Test results reported in patent publication US10921324B2, “Compositions and methods related to the methylation of histone H1.0 protein” (Aelan Cell Technologies, Inc., priority 2016, dated 2021).
Ends that are not written are not given here.

What was measured:
[1] = tested on: G9A methyltransferase; assay: Radiolabel in vitro methylation assay of H1.0 peptide (autoradiography); assay type: biochemical; details: 10U G9A, S-[Methyl-3H] SAM, 37° C. 1 hour
Experimental: In order to visualize methylation of H1.0 peptide by G9A methyltransferase in vitro, a methylation assay was performed incorporating a radiolabelled methyl donor, which allows for visualization of methylated peptide on a gel after autoradiography exposure. The following methylation reaction was set up in a 1.5 ml tube: 1×HMT reaction buffer (50 mM Tris-HCl, 5 mM MgCl2, 4 mM dithiothreitol, pH 9.0), 10U G9A Methyltransferase (NEB, M0235S, Lot #0031201), 3.2 mM Adenosyl-L-Methionine, S-[Methyl-3H] (Perkin Elmer, NET155H, Lot #1664720), 10 μg H1.0 peptide (ThermoFisher Scientific, Biotin-[…] (SEQ ID NO:69)), final volume 10 μl. A control reaction as above but without H1.0 peptide was also created. Reactions were incubated in a thermocycler at 37° C. for 1 hour. Reactions were stopped by incubating on ice for 5 minutes, and subsequently resolved on a 16.5% Tricine gel (BioRad, 4563063). Gels were soaked in 30% methanol, 5% glycerol for 30 minutes before vacuum drying at RT for 24 hours. Autoradiography analysis of dried gels with a phosphoimager (Molecular Dynamics) was then performed to assess effective methylation of H1.0 peptide with methyl-3H groups by the G9A methyltransferase. (Example 1, FIG. 8A)
The methylation reaction was subsequently resolved on a gel and visualized via autoradiography. […] A control reaction lacking H1.0 peptide yielded no tritium-labeled products.

[2] = tested on: G9A methyltransferase; assay: In vitro methylation of unmodified H1.0 peptide with G9A, products by LC-MS; assay type: biochemical
Experimental: In order to identify the precise sites of methylation by G9A and GLP methyltransferases on histone H1.0, in vitro methylation assays were performed and subsequently analyzed by Liquid Chromatography and High-resolution Mass Spectrometry (LC-MS) analysis. Methylation reactions were set up using either G9A methyltransferase (NEB, M0235S, Lot #0031201) or GLP methyltransferase (Cayman Chemical, 10755). The methyl donor in each reaction was unlabeled S-Adenosyl-L-Methionine (NEB, B9003S). The H1.0 substrate in each reaction was either unmodified H1.0 peptide labeled with biotin (ThermoFisher Scientific, Biotin-[…] (SEQ ID NO:69)), di-methylated H1.0 peptide (ThermoFisher Scientific, Biotin-[…]^(me2)PK (SEQ ID NO:70)), or full-length recombinant human H1.0 (NEB, M2501S). […]
For the Liquid Chromatography and High-resolution Mass Spectrometry (LC-MS) analysis, samples were prepared as described above and about 1 μg o the product was injected onto a Thermo Scientific Easy nLC system configured with a 10 cm×100 um trap column and a 25 cm×100 um ID resolving column. […] This ensured optimal full-scan data for quantification. […]
Protein identification was performed using Thermo Scientific Proteome Discoverer version 1.4 (including Sequest and Percolator algorithms) using RefSeqHuman sequence database. […] Protein quantification was performed using Pinpoint version 1.4 software. The Pinpoint quantification workflow included importing the Proteome Discoverer .msf files as spectral libraries. Identified peptides were subsequently quantified in MS .raw files using the Pinpoint peak finding, chromatographic alignment and area calculation algorithms.
In order to identify the precise locations of G9A methylation on unmodified H1.0 peptide ([…] (SEQ ID NO:36)), a methylation reaction was set up and the products identified by LC-MS. […] The methylation reaction was subsequently analyzed by LC-MS, and each spectral peak (corresponding to a peptide species in the final reaction) was identified and quantified using spectral counts. […]

G9A methyltransferase, sequence (Q9Z148 969-1263 limits assumed): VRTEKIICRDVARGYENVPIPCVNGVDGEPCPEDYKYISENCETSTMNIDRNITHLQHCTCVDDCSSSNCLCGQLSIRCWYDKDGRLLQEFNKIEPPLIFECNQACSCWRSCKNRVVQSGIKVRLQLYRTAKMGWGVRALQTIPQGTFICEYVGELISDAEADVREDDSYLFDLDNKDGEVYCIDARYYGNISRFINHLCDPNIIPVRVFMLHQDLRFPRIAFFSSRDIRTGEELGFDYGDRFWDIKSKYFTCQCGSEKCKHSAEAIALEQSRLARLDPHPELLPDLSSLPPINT

“AKPVKASKPKKAKPVKPK (not fully specified (N-terminus); listed as Homo sapiens) [unmethylated H1.0 peptide, unmodified H1.0 peptide substrate for in vitro methylation]” was tested, and the “methylation of H1.0 peptide by G9A (tritium-labeled methyl groups, band at 4 kDa)” value [1] was “capable of methylating an H1.0 peptide”, the “sites of methylation by G9A on the peptide” value ([2]; LC-MS) was “dimethylates lysine K180 but not other lysines (K166, K174, K175 or K177)” and the “H1.0K180 dimethylated, % of all peptides” value ([2]; LC-MS spectral counts, 10U G9A, 3.2 mM S-Adenosyl-L-Methionine, 37° C. 1 hour) was 99.9%. The estimated methylation efficiency ([2]; dimethylation of K180 by G9A) was “about 99%”.
